# “Also recorded” adds a separate entry of the source. Counter-ions that a name gives are not always drawn. Like-named read-outs stand apart in the source and are kept apart here.
# Assays:
# [1] = test system: rat ‘resident-intruder’ model of agitation or aggression; assay: Rat resident-intruder model of agitation or aggression; type: in vivo; details: for sublingual vs intravenous route: duration of the behavioral indices of aggression and agitation: doses of 1 and 1.5 μg/kg, student t-test
# Text: The resident-intruder model is an established preclinical model of aggression and agitation, and allows spontaneous and natural expression of both offensive aggression/agitation and defensive behavior in laboratory rodents in a semi natural laboratory setting.
# Animals: 12-13 week old male Wistar rats weighing 380-400 g were used as resident males. 7-8 weeks old male rats weighing 280-300 g were used as the “intruder”. Resident rats were housed with female rats for 8 days to establish territoriality. The intruder rats were housed in groups of 3 with other male rats of similar age/body weight. All animals were maintained in a controlled environment with 22±3° C. temperature, 50±20% humidity, a light/dark cycle of 12 hours each and 15-20 fresh air changes per hour and had access to food and water ad-libitum. All animal experiments were conducted in accordance with the guidelines of the Committee for the Purpose of Control and Supervision of Experiments on Animals (CPCSEA), Government of India the Association for Assessment and Accreditation of Laboratory Animal Care international (AAALAC).
# Dilutions were prepared fresh every day prior to dosing using 0.9% normal saline from the formulation 4 for the entire study.
# Experimental Procedure: Following acclimatization for a period of 3-5 days, each resident male rat was housed with a female rat for 8 days. On day 8, basal aggression in the resident males was tested by exposing them to an “intruder rat” for 10 minutes. […] These animals were then randomized using body weight stratification method. […] Animals were housed with the female rat for an additional day. On day 9, the resident animal was paired with intruder animal of an appropriate bodyweight such that the body weight of the resident was always higher than the intruder. This was to facilitate dominant, aggressive behavior in the resident animals. After randomization, animals were assigned a permanent number. Cages were identified by cage cards indicating the study number, study code, group number, sex, dose, cage number and animal number details.
# For sublingual dosing, the rats were held in one hand and using a blunt spatula the tongue was moved to one side of the mouth. […] Diazepam was used as a reference compound and was dosed intraperitoneally. Vehicle controls were treated with 0.9% saline administered sublingually or intravenously.
# The behavior of the resident rat was recorded using an overhead video camera for 15 minutes and offline behavioral analysis was done using the Noldus Ethovision XT software. To distinguish the resident rat from the intruder rat in the video recording, the intruder rat was marked with non-toxic paint.
# Statistical Analysis: Statistical analysis was performed using validated statistical software (GraphPad Prism 6). Data is represented as Mean±SEM. One-way ANOVA (analysis of variance) followed by “Dunnett's Multiple Comparison Test” at 95% confidence interval was applied for comparison of the relevant groups. p<0.05 was considered significant.
# [2] = rat, in vivo
# Method: Objective: To estimate Dexmedetomidine levels in rat plasma samples obtained after dosing animals via intravenous and sublingual routes at doses of 0.5, 1, 1.5 and 3 μg/kg.
# Blood was collected under mild isoflurane anesthesia from the retro-orbital plexus at 0, 5, 15, 30, 60 and 120 minutes post dosing. Plasma was separated and stored at −80° C. until Dexmedetomidine concentration was analyzed.
# Analytical Methods: Samples were analysed by using Agilent 1290 Infinity II HPLC system coupled to AB Sciex Triple Quad instrument (API-5000). Chromatographic separation was done using Agilent Zorbax Eclipse plus C18 column (50*2.1 mm, 1.8 μm) in gradient mode. The mobile phase consisted of 10 mM Ammonium Formate with pH 3.5 (Mobile phase A) and 100% Acetonitrile (Mobile phase B). The column temperature was 40° C. and flow rate was 0.35 mL/min. The MS instrument was operated in the positive mode (ESI+). For analysis, 2 μL of sample was injected into the LC-MS/MS instrument. Auto sampler temperature was 7° C.
# WCX SPE 96 well plate was used for sample preparation. 50 μl of plasma sample was used for extraction. Along with study samples, one set of linearity and two sets of quality controls (QC) were also processed.
# Sample pretreatment: To 50 μl of plasma, 10 μl of tolbutamide working solution was added (Tolbutamide 250 ng/ml). After mixing, […], of buffer solution (10 mM Ammonium Formate pH 3.5) was added. Contents were vortex mixed and loaded to preconditioned SPE plate.
# After placing the cartridges in the negative pressure SPE unit, they were conditioned by passing 200 μl of 100% methanol followed by 200 μl of water. The pretreated plasma samples were then loaded to the pre-conditioned cartridges.
# After loading pretreated plasma samples, cartridges were washed with 100 μl of 0.1% ammonia solution. Finally, bound analyte was eluted with 50 μl of 0.1% formic acid in acetonitrile. This step was repeated twice for complete elution. Final eluent volume was 100 μL. To 100 μL of eluent, 50 μL of 10 mM ammonium formate (pH 3.5) was added samples were vortex mixed and transferred to a 96-well HPLC sample plate (Agilent) and submitted for LC-MS/MS analysis. For LC-MS/MS analysis, 2 μL of sample was injected. Calibration standards and QCs were processed the same way as done for study samples.
# The calibration curve was fitted by linear regression. The concentrations in the QC and test samples (pg/mL) were obtained from the Analyst software based on the calibration curve. […] 2) The correlation coefficient (r) of the calibration curve must be greater than or equal to 0.99. 3) At least two-thirds (4 out of 6) QC samples must be within ±20% relative error (accuracy)
smiles,measurement,setting,value
CN1C(=O)CN=C(c2ccccc2)c2cc(Cl)ccc21 [Diazepam],indices of aggressive and agitated behaviors,"[1]; 3 mg/kg, i.p., FIG. 1A-1D",significant reduction in all the indices of aggressive and agitated behaviors
same,attacking behavior / latency to attack,"[1]; 3 mg/kg, i.p., FIGS. 2A and 2B",complete lack of attacking behavior
same,frequency and duration of neutral behaviors,"[1]; 3 mg/kg, ip",significantly reduced the frequency and duration of all neutral behaviors
"Cc1cccc([C@H](C)c2cnc[nH]2)c1C [Dexmedetomidine hydrochloride, (S)-4-[1-(2,3-Dimethylphenyl)ethyl]-3H-imidazole]",Plasma concentrations between 15 to 30 min,[2],43±13.5 to 90±12.1
same,effect of dose on plasma concentrations,[2],dose-related effect on plasma concentrations
same,plasma concentrations between 15 to 30 min,[2],27±7.1-114±1.7
same,effect of dose on plasma concentrations,[2]; iv,dose-dependent effect on plasma concentrations
same,doses that effectively reduced the behavioral indices of aggression and agitation without majorly impacting the neutral behaviors,"[1]; administered sublingually or intravenously, doses used 0.5-3 μg/kg",1 to 1.5 µg/kg
same,various indices of agitation and aggression,"[1]; conclusion, rat resident intruder model",effectively reduces various indices of agitation and aggression
same,sublingual vs intravenous route: duration of the behavioral indices of aggression and agitation,[1],correlates with intravenously administered Dexmedetomidine hydrochloride
same,sublingual vs intravenous route: duration of the behavioral indices of aggression and agitation,[1]; listed as dexmedetomidine hydrochloride,No significant differences (i.e. similar effect via sublingual
same,"latency to attack the intruder rat, significance vs vehicle controls","[1]; intravenous, 3 μg/kg, FIG. 2B",significant compared to vehicle controls
same,neutral behavior: immobile/quiet time,"[1]; intravenous, 3 μg/kg, FIG. 3F",significantly increased the immobile/quiet time
same,neutral behaviors: grooming and exploration compared to vehicle controls,"[1]; intravenous, 0.5-3 μg/kg, except at a dose of 3 μg/kg",did not significantly affect grooming and exploration
same,indices of aggressive and agitated behaviors,"[1]; intravenous, 0.5-3 μg/kg, FIG. 1C, 1D",reduced all the indices of aggressive and agitated behaviors
same,"anogenital sniffing, biting and attacking compared to vehicle controls","[1]; intravenous, doses above 0.5 μg/kg, FIG. 1C, 1D",significant reduction
same,latency to attack the intruder rat compared to the vehicle control group,"[1]; prior treatment, dose related manner, route not stated",significant increase in the latency to attack the intruder rat
same,neutral behavior: exploration compared to vehicle controls,"[1]; sublingual, 1.5 μg/kg & 3 μg/kg, FIGS. 3A and 3B",reduction in exploration
same,"frequency and duration of aggressive and agitated behaviors (anogenital sniffing, chasing, biting, attacking)","[1]; sublingual, 0.5-3 μg/kg, 15 minutes prior to testing, FIG. 1A, 1B",reduced the frequency and duration of these behaviors in a dose related manner; also recorded: dose related reduction
same,latency to attack the intruder rat,"[1]; sublingual, 0.5-3 μg/kg, dose related, FIG. 2A",increase in the latency to attack the intruder rat
same,neutral behaviors: grooming and exploration compared to vehicle controls,"[1]; sublingual, 0.5-3 μg/kg, except exploration at 1.5 and 3 μg/kg, FIGS. 3A and 3B",No significant changes
same,chasing and attacking compared to vehicle control group,"[1]; sublingual, 0.5-3 μg/kg, FIG. 1A, 1B",Significant reduction
same,neutral behavior: immobile/quiet time compared to vehicle controls,"[1]; sublingual, 0.5-3 μg/kg, FIG. 3C",no significant effect
same,neutral behavior of animals,[1]; sublingually administered,No changes were observed

# Source: patent publication US11931340B2, “Use of sublingual dexmedetomidine for the treatment of agitation” (BioXcel Therapeutics, Inc., priority 2016, dated 2024)
